From US10440955B2, “Methods comprising a biocidal polyamine” (Curza Global, LLC, priority 2013, dated 2019)
“And” between values parts separate entries of the source, which are not always exact repeats. Identical values can stand only once. Counter-ions that a name gives are not always drawn.

Legend:
human blood = assay: Hemolysis test with diluted human blood (ISO 10993-4); format: cell-based
Text: Procedure: The PBS used in testing was calcium and magnesium free. The method has been validated using human blood from one donor. This is in compliance with ISO 10993-4 which states due to differences in blood activity, human blood should be used where possible. Furthermore, pooling unmatched human blood from multiple donors may cause red blood cell agglutination which in turn could cause hemolysis; this supports the use of a single donor.
The blood was drawn using vacutainers containing 0.1 M sodium citrate at a ratio of 9:1 (3.2% anticoagulant to blood). The blood in this test was used within four hours of blood draw. The collected blood was refrigerated until testing was performed.
A hemoglobin standard was diluted with Drabkin's reagent to give solutions at concentrations of 0.80, 0.60, 0.40, 0.30, 0.20, 0.10, 0.02, and 0.01 mg/ml. These solutions were allowed to stand at room temperature for a minimum of five minutes. The absorbance was read on a spectrophotometer at 540 nanometers (nm). A standard curve was determined with the absorbance values and the standard concentrations of hemoglobin.
Human blood was centrifuged at 700-800×g for 15 minutes. A 1 mL aliquot of the plasma was added into 1 mL of Drabkin's reagent, and placed at room temperature for a minimum of 15 minutes. The absorbance was read on a spectrophotometer at 540 nm. The hemoglobin concentration was determined from the standard curve and then multiplied by a factor of 2 to obtain the total plasma free hemoglobin. The plasma free hemoglobin was less than 2 mg/mL (actual value 0.221 mg/mL). A 20 μL aliquot of blood was added to 5 mL of Drabkin's reagent in duplicate and allowed to stand at room temperature for a minimum of 15 minutes. The absorbance was read on a spectrophotometer at 540 nm then multiplied by 251 to account for the dilution.
Based on the plasma hemoglobin and the blood absorbance against Drabkin's reagent, the blood was diluted out to 10±1 mg/mL with PBS. To verify the blood dilution, a 300 μL aliquot of this blood was added to 4.5 mL of Drabkin's reagent in triplicate and allowed to stand at room temperature for a minimum of 15 minutes. The absorbance was read on a spectrophotometer at 540 nm then multiplied by 16 to account for the dilution.
Glass test tubes were labeled appropriately. Both samples were prepared the same way. The samples were allowed to thaw prior to testing. To each test tube, 7 mL of the test article and 1 mL of the diluted blood were added. The controls consisted of the appropriate amount of control material, 7 mL of PBS and 1 mL of blood. Three tubes were prepared for each test article and control. The tubes were incubated at 37±2° C. for 3 hours±5 minutes. Tubes were gently inverted twice at 30 minute intervals throughout the incubation period. A non-hemolytic negative control, a hemolytic positive control and a PBS blank were included.
After incubation, test articles were centrifuged at 700-800×g for 15 minutes and 1 mL of the supernatant fluid was combined with 1 mL of Drabkin's reagent and allowed to stand at room temperature for a minimum of 15 minutes. Following the centrifugation phase, the supernatant of both test articles visually appeared clear and were particulate free. The PBS blank and the negative control supernatant visually appeared clear and were particulate free. The supernatant of the positive control visually appeared red and were particulate free. The test articles and controls were read at 540 nm in a spectrophotometer.
The hemolytic index (percent hemolysis) was interpreted using the following equation:
[formula] Where: Hemoglobin Released (mg/mL)=(Optical Density×X Coefficient+Constant)×16 Hemoglobin Present (mg/ml)=Diluted Blood 10±1 mg/mL
The corrected hemolytic index was calculated by subtracting the hemolytic index of the PBS blank solution from the hemolytic index of the test article and controls. […]

MRSA [1] = assay: MIC against MRSA (as defined by CLSI); format: cell-based; conditions: Staphylococcus aureus, FIG. 25
Protocol: To determine the MIC of the polyamine chains alone and the synthesized compounds against MRSA and P. aeruginosa ATCC 27853, a modified protocol from the Clinical and Laboratory Standards Institute (CLSI) guideline M26-A was used. […] All data was collected using cation adjusted MHB for standardization.
As mentioned, MRSA and P. aeruginosa ATCC 27853 were grown on Columbia blood agar plates prior to experimentation. From the blood agar plates, a 0.5 McFarland standard was made of each isolate. This equated to approximately 5×10^7 cells/mL for the MRSA isolate and approximately 3×10^7 cells/mL for the P. aeruginosa ATCC 27853 isolate. Of the 0.5 McFarland stock solution, 50 μL were added to MHB. […] All tests were performed such that a final volume of 5 mL of MHB were obtained. This provided a final bacterial concentration of approximately 5×10^5 cells/mL.
Each sample was incubated in glass test tubes at 37° C. for 24 hours, then plated in duplicate on tryptic soy agar (TSA) using a 10-fold dilution series. TSA plates were further incubated 24 hours at 37° C. The number of colony forming units (CFU) that grew were counted in order to calculate the number of bacteria that were present per mL in the original MHB solution.

MRSA [2] = assay: MIC, microdilution CLSI M26-A (Example 2); format: cell-based; conditions: Staphylococcus aureus, 24 h, read-out: MIC (μg/mL/μM)
Protocol: The second test determined the minimum inhibitory concentration (MIC) of the compound against MRSA and P. aeruginosa ATCC 27853. […] This definition was consistent with the Clinical and Laboratory Standards Institute (CLSI). More specifically, the microdilution method as outlined in the M26-A CLSI guideline was used. All tests were performed with cation adjusted Mueller Hinton broth.

MRSA biofilm = assay: MBEC assay (Calgary Biofilm Device), eradication of 100% of detectable biofilm (Example 2); format: cell-based, Staphylococcus aureus; conditions: eradicate 100% of detectable biofilm
Protocol: In addition to determining the MIC, the minimum biofilm eradication concentration (MBEC) of PBC-51 was also determined. The MBEC was determined using the MBEC assay, formerly known as the Calgary Biofilm Device, developed by Innovotech. In this instance, the MBEC was defined as the amount of antimicrobial required to eradicate 100% of detectable biofilm after being grown in the MBEC device. To grow the biofilms within this device, 150 μL of solution containing a concentration of 10^5 cells/mL were inoculated into each well of a 96-well plate. A lid containing 96 pegs was placed onto the plate and incubated for 24 hours at 37° C. while being shaken at 110 rpm. Biofilms developed on the surface of the polystyrene pegs within the 96-well plate. After 24 hours, each peg contained between 10^5 and 10^6 cells in well-established biofilms. The lid with pegs was transferred to a 96-well plate that contained 200 μL of varying concentrations of the compound and was incubated at 37° C. for an additional 24 hours. The plate was then sonicated, and the biofilms quantified using a 10-fold dilution series to determine the MBEC.

**Q.** For CC(C)CNCCCNCCCNCc1cc(CNCCCNCCCNCC(C)C)cc(-c2ccccc2)c1 [CZ-86, N^1,N^1′-([1,1′-biphenyl]-3,5-diylbis(methylene))bis(N^3-(3-(isobutylamino)propyl)propane-1,3-diamine), hydrochloride salt], which “Average Hemolytic Index (% Hemolysis)” value (human blood) is on record?
**A.** The value was 0.76 % Hemolysis.

**Q.** What about the “Hemolytic Grade” value (human blood) of the same molecule?
**A.** Its value is “non-hemolytic”.

**Q.** What about the “difference between the hemolytic indexes of test article and negative control” value (human blood) of the same molecule?
**A.** Its value is 0.00%.

**Q.** And the “Average Optical Density” value (human blood; 540 nm)?
**A.** Its value is 0.003.

**Q.** And the “Optical Density” value (human blood; 540 nm, three tubes, 37 ± 2° C., 3 hours)?
**A.** The value was 0.003.

**Q.** What about the “Corrected Hemolytic Index (% Hemolysis)” value (human blood; hemolytic index of the PBS blank subtracted) of the same molecule?
**A.** The value was 0.00 % Hemolysis.

**Q.** What about the “Hemolytic Index” value (human blood; three tubes) of the same molecule?
**A.** Its value is 0.764.

**Q.** With NCCCNCCCNCc1ccccc1 [CZ-7, benzylnorspermidine] as the molecule, how does the MIC (MRSA [1]) read?
**A.** The MIC was greater than 1200 µg/mL.

**Q.** Which results are given for CN[C@H](CC(C)C)C(=O)N[C@H]1C(=O)N[C@@H](CC(N)=O)C(=O)N[C@H]2C(=O)N[C@H]3C(=O)N[C@H](C(=O)N[C@H](C(=O)O)c4cc(O)cc(O)c4-c4cc3ccc4O)[C@H](O)c3ccc(c(Cl)c3)Oc3cc2cc(c3O[C@@H]2O[C@H](CO)[C@@H](O)[C@H](O)[C@H]2O[C@H]2C[C@](C)(N)[C@H](O)[C@H](C)O2)Oc2ccc(cc2Cl)[C@H]1O [vancomycin, reference compound]?
**A.** MIC (MRSA [2]): 10 µg/mL and 6.73 µM; MBEC (μg/mL/μM) (MRSA biofilm): > 500 μg/mL and > 336.50 μM
